Drawing on patent US6921821B2, “Antagonists of melanin concentrating hormone receptor” (Abbott Laboratories, priority 2002, dated 2005), this text covers inhibition for 37 compounds.

Counter-ions that a name gives are not always drawn.

T1 sequence (Q8JZL2 whole entry): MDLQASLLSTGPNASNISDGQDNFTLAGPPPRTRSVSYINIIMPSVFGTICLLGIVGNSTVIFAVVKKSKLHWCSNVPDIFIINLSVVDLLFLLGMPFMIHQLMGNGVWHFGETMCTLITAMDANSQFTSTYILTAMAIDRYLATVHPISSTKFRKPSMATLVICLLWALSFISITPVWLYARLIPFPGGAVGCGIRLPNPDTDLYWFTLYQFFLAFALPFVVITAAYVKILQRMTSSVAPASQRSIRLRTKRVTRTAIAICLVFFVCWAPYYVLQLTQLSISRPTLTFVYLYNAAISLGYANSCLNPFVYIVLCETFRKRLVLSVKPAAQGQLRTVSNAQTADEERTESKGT

The experiment addresses T1, murine MCHR (Mus musculus, UniProt Q8JZL2).
T1 construct: expressed in transfected cells; host or cells: HEK293
The experiment in a line: Assay for release of intracellular calcium (FLIPR, Fluo-4), inhibition of MCH-induced Ca++ flux. It is filed as cell-based. To be noted: test compound at a dose of 10 μM, HEK293 cells expressing the murine MCHR, read-out: inhibition of MCH (MCH induced Ca++ flux / fluorescence). In a few lines: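 HEK293 cells expressing murine MCHR were loaded with Fluo-4AM (2.5 μM) and given compound (40 μM stock in 4% DMSO), with 3 min monitoring for agonism. They were then challenged with mouse MCH (12 nM as added) and FLIPR fluorescence followed 3 min more. % inhibition of MCH-induced Ca++ flux was calculated against baseline and no-compound signals.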
(In general: A change in cytosolic calcium serves as a functional read-out for many receptors and channels.)
As for `C=Cc1ccc2oc(=O)cc(NC3CCN(Cc4ccc5c(c4)OCCO5)CC3)c2c1` [II-57, 4-{1-(2,3-Dihydrobenzo{1,4}dioxin-6-ylmethyl)-piperidin-4-ylamino}-6-vinyl-chromen-2-one], the inhibition at 10 µM was at least 50%.

As to `COc1ccc2oc(=O)cc(NC3CCN(Cc4ccc(Cl)c(F)c4)CC3)c2c1` [II-58, 4-[1-(4-Chloro-3-fluoro-benzyl)-piperidin-4-ylamino]-6-methoxy-chromen-2-one trifluoroacetate], the inhibition at 10 µM was at least 50%.

`O=c1cc(NC2CCN(Cc3ccc(Cl)cc3)CC2)c2cc(Cl)ccc2o1` [II-59, 6-Chloro-4-{1-(4-chloro-benzyl)-piperidin-4-ylamino}-chromen-2-one]: the inhibition at 10 µM was at least 50%.

With `CC(c1ccc2c(c1)OCO2)N1CCC(Nc2cc(=O)oc3ccc(Cl)cc23)CC1` (stereo not shown) [II-60, 4-[1-(1-Benzo[1,3]dioxol-5-yl-ethyl)-piperidin-4-ylamino]-6-chloro-chromen-2-one], the inhibition at 10 µM was at least 50%.

In the case of `Cc1cc2cc(CN3CCC(Nc4cc(=O)oc5ccc(Cl)cc45)CC3)ccc2o1` [II-61, 6-Chloro-4-[1-(2-methyl-benzofuran-5-ylmethyl)-piperidin-4-ylamino]-chromen-2-one], the inhibition at 10 µM was at least 50%.

In the case of `CCc1ccc2oc(=O)cc(NC3CCN(Cc4ccc5c(c4)OCO5)CC3)c2c1` [II-63, 4-(1-Benzo{1,3}dioxol-5-ylmethyl-piperidin-4-ylamino)-6-ethyl-chromen-2-one], the inhibition at 10 µM is at least 50%.

Take `COc1ccc2oc(=O)cc(NC3CCN(Cc4ccc5c(c4)OCCO5)CC3)c2c1` [II-64, 4-[1-(2,3-Dihydro-benzo[1,4]dioxin-6-ylmethyl)-piperidin-4-ylamino]-6-methoxy-chromen-2-one trifluoroacetate]: the inhibition at 10 µM was at least 50%.

As for `COc1ccc2oc(=O)cc(NC3CCN(Cc4ccc(Br)cc4)CC3)c2c1` [II-65, 4-[1-(4-Bromo-benzyl)-piperidin-4-ylamino]-6-methoxy-chromen-2-one trifluoroacetate], the inhibition at 10 µM was at least 50%.

`COc1ccc2oc(=O)cc(NC3CCN(Cc4cccc5ccccc45)CC3)c2c1` [II-66, 6-Methoxy-4-(1-naphthalen-1-ylmethyl-piperidin-4-ylamino)-chromen-2-one trifluoroacetate]: the inhibition at 10 µM was at least 50%.

In the case of `O=C(NCCN1CCCCC1)c1ccc(CN2CCC(Nc3cc(=O)oc4ccc(Cl)cc34)CC2)cc1` [II-67, 4-[4-(6-Chloro-2-oxo-2H-chromen-4-ylamino)-piperidin-1-ylmethyl]-N-(2-piperidin-1-yl-ethyl)-benzamide; Double TFA Salt], the inhibition at 10 µM was at least 50%.

As to `COc1ccc2oc(=O)cc(NC3CCN(Cc4ccc5c(c4)OC(F)(F)O5)CC3)c2c1` [II-68, 4-[1-(2,2-Difluoro-benzo[1,3]dioxol-5-ylmethyl)-piperidin-4-ylamino]-6-methoxy-chromen-2-one trifluoroacetate], the inhibition at 10 µM is at least 50%.

`COc1ccc2oc(=O)cc(NC3CCN(Cc4ccc(C(=O)NCCN5CCCCC5)cc4)CC3)c2c1` [II-69, 4-[4-(6-Methoxy-2-oxo-2H-chromen-4-ylamino)-piperidin-1-ylmethyl]-N-(2-piperidin-1-yl-ethyl)-benzamide; Double TFA Salt]: the inhibition at 10 µM is at least 50%.

As to `COc1ccc2oc(=O)cc(NC3CCN(Cc4ccc(OC)c(F)c4)CC3)c2c1` [II-70, 4-[1-(3-Fluoro-4-methoxy-benzyl)-piperidin-4-ylamino]-6-methoxy-chromen-2-one trifluoroacetate], the inhibition at 10 µM was at least 50%.

Turning to `Cc1ccc(CN2CCC(Nc3cc(=O)oc4ccc(Cl)cc34)CC2)cc1C` [II-71, 6-Chloro-4-[1-(3,4-dimethyl-benzyl)-piperidin-4-ylamino]-chromen-2-one], the inhibition at 10 µM is at least 50%.

For `O=c1cc(NC2CCN(Cc3ccc4cnccc4c3)CC2)c2cc(Cl)ccc2o1` [II-73, 6-Chloro-4-(1-isoquinolin-6-ylmethyl-piperidin-4-ylamino)-chromen-2-one], the inhibition at 10 µM is at least 50%.

In the case of `CC(c1ccc(Cl)cc1)N1CCC(Nc2cc(=O)oc3ccc(Cl)cc23)CC1` (stereo not shown) [II-74, 6-Chloro-4-{1-[1-(4-chloro-phenyl)-ethyl]-piperidin-4-ylamino}-chromen-2-one], the inhibition at 10 µM is at least 50%.

Regarding `N#Cc1ccc2oc(=O)cc(NC3CCN(Cc4ccc5c(c4)OCO5)CC3)c2c1` [II-75, 4-(1-Benzo[1,3]dioxol-5-ylmethyl-piperidin-4-ylamino)-2-oxo-2H-chromene-6-carbonitrile], the inhibition at 10 µM was at least 50%.

`COc1cccc(CN2CCC(Nc3cc(=O)oc4ccc(OC)cc34)CC2)c1` [II-76, 6-Methoxy-4-[1-(3-methoxy-benzyl)-piperidin-4-ylamino]-chromen-2-one trifluoroacetate]: the inhibition at 10 µM is at least 50%.

Consider `O=c1cc(NC2CCN(Cc3ccc4c(c3)CCO4)CC2)c2cc(Cl)ccc2o1` [II-78, 6-Chloro-4-[1-(2,3-dihydro-benzofuran-5-ylmethyl)-piperidin-4-ylamino]-chromen-2-one], for which the inhibition at 10 µM is at least 50%.

For `COc1ccc2oc(=O)cc(NC3CCN(Cc4cccc(F)c4)CC3)c2c1` [II-79, 4-[1-(3-Fluoro-benzyl)-piperidin-4-ylamino]-6-methoxy-chromen-2-one trifluoroacetate], the inhibition at 10 µM is at least 50%.

For the compound `CCOc1ccc(CN2CCC(Nc3cc(=O)oc4ccc(OC)cc34)CC2)cc1` [II-80, 4-[1-(4-Ethoxy-benzyl)-piperidin-4-ylamino]-6-methoxy-chromen-2-one trifluoroacetate], the inhibition at 10 µM was at least 50%.

In the case of `O=C1CCCN1c1cc(Cl)cc2c(NC3CCN(Cc4ccc5c(c4)OCO5)CC3)cc(=O)oc12` [II-81], the inhibition at 10 µM is at least 50%.

Turning to `O=c1cc(NC2CCN(Cc3ccc4c(c3)OCO4)CC2)c2cc(C(F)(F)F)ccc2o1` [II-82, 4-(1-Benzo[1,3]dioxol-5-ylmethyl-piperidin-4-ylamino)-6-trifluoromethyl-chromen-2-one], the inhibition at 10 µM was at least 50%.

`COc1ccc2oc(=O)cc(NC3CCN(Cc4ccc(C(=O)NCCc5ccccn5)cc4)CC3)c2c1` [II-83, 4-[4-(6-Methoxy-2-oxo-2H-chromen-4-ylamino)-piperidin-1-ylmethyl]-N-(2-pyridin-2-yl-ethyl)-benzamide; Double TFA Salt]: the inhibition at 10 µM is at least 50%.

With `COc1ccc2oc(=O)cc(NC3CCN(Cc4cc5ccccc5n4C)CC3)c2c1` [II-84, 6-Methoxy-4-[1-(1-methyl-1H-indol-2-ylmethyl)-piperidin-4-ylamino]-chromen-2-one, trifluoroacetate], the inhibition at 10 µM is at least 50%.

Take `O=c1cc(NC2CCN(Cc3ccc4ccccc4c3)CC2)c2cc(F)cc(F)c2o1` [II-85, 6,8-Difluoro-4-(1-naphthalen-2-ylmethyl-piperidin-4-ylamino)-chromen-2-one]: the inhibition at 10 µM is at least 50%.

In the case of `COc1ccc2oc(=O)cc(NC3CCN(Cc4ccc(C(=O)NCCN5CCCC5)cc4)CC3)c2c1` [II-86, 4-[4-(6-Methoxy-2-oxo-2H-chromen-4-ylamino)-piperidin-1-ylmethyl]-N-(2-pyrrolidin-1-yl-ethyl)-benzamide; Double TFA Salt], the inhibition at 10 µM was at least 50%.

For `C=Cc1ccc2oc(=O)cc(NC3CCN(Cc4ccc5c(c4)CCO5)CC3)c2c1` [II-87, 4-[1-(2,3-Dihydro-benzofuran-5-ylmethyl)-piperidin-4-ylamino]-6-vinyl-chromen-2-one], the inhibition at 10 µM was at least 50%.

Regarding `COc1ccc2oc(=O)cc(NC3CCN(Cc4ccc(O)c(F)c4)CC3)c2c1` [II-88, 4-[1-(3-Fluoro-4-hydroxy-benzyl)-piperidin-4-ylamino]-6-methoxy-chromen-2-one hydrochloride], the inhibition at 10 µM was at least 50%.

On to `Cc1ccc2oc(=O)c(F)c(NC3CCN(Cc4ccc5c(c4)OCO5)CC3)c2c1` [II-89, 4-(1-Benzo{1,3}dioxol-5-ylmethyl-piperidin-4-ylamino)-3-fluoro-6-methylchromene-2-one], for which the inhibition at 10 µM was at least 50%.

Regarding `COc1ccc2oc(=O)c(Cl)c(NC3CCN(Cc4ccc5c(c4)OCO5)CC3)c2c1` [II-90, 4-(1-Benzo[1,3]dioxol-5-ylmethyl-piperidin-4-ylamino)-3-chloro-6-methoxy-chromen-2-one], the inhibition at 10 µM was at least 50%.

Consider `COc1ccc2oc(=O)cc(NC3CCN(Cc4ccc(OCCCN(C)C)cc4)CC3)c2c1` [II-91], for which the inhibition at 10 µM was at least 50%.

Turning to `COc1ccc2oc(=O)cc(NC3CCN(Cc4cccc(C)c4)CC3)c2c1` [II-92, 6-Methoxy-4-[1-(3-methyl-benzyl)-piperidin-4-ylamino]-chromen-2-one trifluoroacetate], the inhibition at 10 µM is at least 50%.

Take `O=c1cc(NC2CCN(Cc3cc(Cl)c4occc4c3)CC2)c2cc(Cl)ccc2o1` [II-93, 6-Chloro-4-[1-(7-chloro-benzofuran-5-ylmethyl)-piperidin-4-ylamino]-chromen-2-one]: the inhibition at 10 µM is at least 50%.

On to `COc1ccc2oc(=O)cc(NC3CCN(Cc4ccc(C(=O)N5CCN(Cc6ccccc6)CC5)cc4)CC3)c2c1` [II-94, 4-{1-[4-(4-Benzyl-piperazine-1-carbonyl)-benzyl]-piperidin-4-ylamino}-6-methoxy-chromen-2-one; Double TFA Salt], for which the inhibition at 10 µM was at least 50%.

Take `O=c1cc(NC2CCN(Cc3ccc4ocnc4c3)CC2)c2cc(Cl)ccc2o1` [II-95, 4-{1-Benzooxazol-5-ylmethyl-piperidin-4-ylamino)-6-chloro-chromen-2-one]: the inhibition at 10 µM is at least 50%.

With `O=c1cc(NC2CCN(Cc3ccc4c(c3)OCO4)CC2)c2cc(OC(F)(F)F)ccc2o1` [II-96, 4-(1-Benzo[1,3]dioxol-5ylmethyl-piperidin-4-ylamino)-6-trifluoromethoxy-chromen-2-one], the inhibition at 10 µM was at least 50%.
